This passage reports GI50 and TGI results from PubChem BioAssay (NCI).

Structures are written as SMILES.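 In this assay, cells in 96-well plates receive the compound at five concentrations for 48 hours. Endpoints are linearly interpolated between the surrounding concentrations. At the GI50, growth is halved. TGI: total growth inhibition.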 Some results are limits rather than exact numbers.

This experiment deals with MDA-MB-468 breast. Description: inhibition of tumour cell growth, NCI panel, 48 h.
Turning to `CC(C)=CCc1c2c(c(O)c3c1O[C@]14C(=C[C@@H]5C[C@H]1C(C)(C)O[C@@]4(C/C=C(/C)C(=O)O)C5=O)C3=O)C=CC(C)(C)O2`, the GI50 is 15.8 µM and the TGI was 35.5 µM.
With `Fc1ccc(C2CC(c3cccc(Nc4ccncc4)c3)=NN2c2ccccc2)cc1` (centres undefined), the GI50 is 1.54 µM and the TGI stood at 3.37 µM.
For `Cc1ccc(NC(=O)c2cc(/C=C/C(=O)NO)cc(C(F)(F)F)c2)cc1Nc1nccc(-c2cccnc2)n1` the same measures were 1.43 µM and 3.94 µM.
On to `N#Cc1ncc(-c2ccc(C(F)(F)F)cc2)c(NC2CCCCCC2)n1`, for which the GI50 was 4.16 µM and the TGI is above 100 µM.
Consider `CN(C)C/C=C/C(=O)Nc1ccc(C(=O)Nc2cccc(Nc3ncc(Cl)c(-c4c[nH]c5ccccc45)n3)c2)cc1`, for which the GI50 was 0.018 µM and the TGI came out at 0.043 µM.
In the case of `Cc1ccc2c(-c3ccnc(Nc4cccc(C(F)(F)F)c4)n3)c(-c3ccccc3)nn2n1`, the GI50 was 0.509 µM and the TGI came out at 4.58 µM.
Turning to `CCOC(=O)C(Cc1ccccc1)n1c(O)c(/C=N/c2ncc(Cc3ccc(Cl)cc3Cl)s2)sc1=S` (centres undefined), the GI50 is 2.48 µM and the TGI stood at 7.35 µM.
The corresponding values for `Nc1ncc(-c2ccc3ncnc(N4CCc5cc(F)c(Cl)cc54)c3c2)cc1C=O` are 0.306 µM and 1.63 µM.
With `COC(=O)C1C(=O)C(C(=O)OC)C2CCC1N2C` (centres undefined), the GI50 is 69.5 µM and the TGI is above 100 µM.
With `Cc1ccc(/C=C(/C#N)n2nnc3cccc(F)c32)cc1`, the GI50 is 0.702 µM and the TGI turned out to be 6.3 µM.
The corresponding values for `C=CCc1cc(O)ccc1O` are 14 µM and 32.4 µM.
For `CC[C@]1(O)CC2CN(CCc3c([nH]c4ccccc34)C(C(=O)OC)(c3cc4c(cc3OC)N(C=O)[C@H]3[C@@](O)(C(=O)OC)[C@H](OC(C)=O)[C@]5(CC)[C@@H]6C[C@@H]6CN6CC[C@]43[C@@H]65)C2)C1` (some centres undefined), the GI50 was below 0.00325 µM and the TGI was below 0.00325 µM.
In the case of `O=C1NC(=NCCc2ccccc2F)S/C1=C\c1ccc2ncccc2c1`, the GI50 was 2.67 µM and the TGI is above 18.6 µM.
As for `CCNCCS(=O)(=O)NC[C@@]1(c2ccccc2)SC(NC(=O)C(C)(C)C)=NN1C(=O)C(C)(C)C`, the GI50 is below 0.01 µM.
With `CC(=O)NC(CCc1ccc(Cl)c(Cl)c1)c1cccc(O)c(=O)c1` (centres undefined), the GI50 is 0.442 µM and the TGI is 4.07 µM.
`CCCCNC(=O)CC1=C(C)/C(=C/c2[nH]c(-c3ccc[nH]3)cc2OC)N=C1C`: the GI50 was 2.04 µM and the TGI was 7.5 µM.
As to `Cc1ncnc2c1ccn2[C@@H]1C[C@H](Oc2cc(C(F)F)c(F)c3c2CNCC3)[C@@H](O)[C@H]1O`, the GI50 was above 100 µM and the TGI is above 100 µM.
As to `Cc1cc2c(C(C)C)c(O)c(O)c(/C=N/O)c2c(O)c1-c1c(C)cc2c(C(C)C)c(O)c(O)c(/C=N/O)c2c1O`, the GI50 is 2.05 µM and the TGI is 6.44 µM.
In the case of `COc1cc(C(=O)/C=C/c2cccnc2Nc2ccc(Cl)cc2)cc(OC)c1OC`, the GI50 was 1.29 µM and the TGI came to 2.67 µM.
The corresponding values for `CC(C)N(CCNc1nc(C(Cl)(Cl)Cl)nc2cc(Cl)ccc12)C(C)C` are 1.38 µM and 2.82 µM.
For the compound `N#Cc1c(-c2ccccc2)nc(SCC(O)CN2CCOCC2)nc1N1CCOCC1` (centres undefined), the GI50 was 2.16 µM and the TGI came out at 21.5 µM.
The corresponding values for `Cc1c(Br)c(Br)c2c3c1nc(N1CCNCC1)n3CCC2` are 1.6 µM and 3.31 µM.
`COc1cccc(N2C(=N)/C(=C3\Nc4ccccc4S3)CC2=O)c1`: the GI50 is 26.2 µM and the TGI is above 100 µM.
In the case of `Cn1cc(Nc2nccc(-c3ccc4c(c3)CN(C3COC3)CC[C@H]4NC(=O)c3cn(C(C)(C)C)nn3)n2)cn1`, the GI50 was 39 µM and the TGI was above 100 µM.
Consider `CC(C)(Oc1cccc(N2CCC[C@@H](C(=O)N(Cc3ccc(-c4cn[nH]c4)cc3)C3CC3)C2)c1)C(=O)N1CCNCC1`, for which the GI50 is 2.23 µM and the TGI was found to be 6.8 µM.
As for `Cn1ccc(S(=O)(=O)N2CCC[C@H](Nc3nccc(-c4c(-c5cccc(O)c5)nc5occn45)n3)C2)n1`, the GI50 was 8.15 µM and the TGI stood at 31.9 µM.
Consider `O=C(Nc1nc2ccc(OC(F)(F)F)cc2s1)c1ccc(F)cc1`, for which the GI50 was 2.36 µM and the TGI came to 7.36 µM.
`Cc1cc(NS(=O)(=O)c2ccc(-c3cnc(C4CC4)o3)cc2)ccc1Cl`: the GI50 was 0.165 µM and the TGI turned out to be 12.7 µM.
Regarding `CN1CCC(=C(c2ccc(Cl)cc2)c2ccccn2)CC1`, the GI50 was 38.9 µM and the TGI was above 100 µM.
`CCN(CC)Cc1cc(Nc2ccnc3ccc(OC)cc23)ccc1O`: the GI50 was 1.67 µM and the TGI was 4.47 µM.
For `CN1C(=O)[C@@H](CC2CCCC2)N(C2CCCC2)c2nc(Nc3cc(Cl)c(O)c(Cl)c3)ncc21`, the GI50 was 19.1 µM and the TGI worked out at 89.9 µM.
The corresponding values for `CCN1C[C@@H](C)n2c(c(O)c3c(=O)n(Cc4ccc(F)c(Cl)c4)nc(C(=O)NC)c32)C1=O` are 2.51 µM and 8.18 µM.
As to `C/C=C(/C)C(=O)OC1C=C(CO)C(=O)C(OC(=O)C2(C)OC2C)C1C(C)C` (centres undefined), the GI50 is 1.46 µM and the TGI was determined as 3.46 µM.
The corresponding values for `Oc1ccc(/C=N/NC(=S)Nc2ccccc2)nc1` are 1.32 µM and 4.4 µM.
Consider `COc1cc(C2C=C(C)N=C3SC=C(C)N32)cc(OC)c1OC` (centres undefined), for which the GI50 was 1.12 µM and the TGI was 2.67 µM.
For the compound `C#Cc1ccc(C(=O)NCc2ccc(/C=C/C(=O)c3nccn3C)cc2)cc1`, the GI50 is 2.6 µM and the TGI was found to be 8.76 µM.
The corresponding values for `CCN(CC)CCOc1ccc2c(-c3ccccc3)c(-c3ccc(OC)cc3)c(=O)oc2c1` are 2.58 µM and 8.73 µM.
Take `Oc1c(Cl)cc(Cl)c(Cl)c1Cc1c(O)c(Cl)cc(Cl)c1Cl`: the GI50 is 0.661 µM and the TGI was determined as 8.45 µM.
With `COc1ccc(-c2cc(-c3ccc(Cl)cc3)nc(SCCCC(=O)NO)n2)cc1OC`, the GI50 is 1.17 µM and the TGI stood at 4.27 µM.
With `CCN(CC)CCOc1ccc(/C(=C(\C)Cc2ccc(OC)cc2)c2ccc(O)cc2)cc1`, the GI50 was 1.54 µM and the TGI came out at 3.05 µM.
